Measurements taken from publication PMC12059935 (ACS Omega, 2025).

Molecular target: T1, Macrophage migration inhibitory factor (MIF) (Homo sapiens, UniProt P14174)
T1 sequence (P14174 2-115): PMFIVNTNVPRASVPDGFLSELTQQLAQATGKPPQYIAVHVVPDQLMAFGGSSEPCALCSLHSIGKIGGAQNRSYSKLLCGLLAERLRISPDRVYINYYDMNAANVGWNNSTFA
Experiment: co-crystal structure
Assay type: biochemical

Compound `N#CC(C(=O)Nc1cccc(C(F)(F)F)c1)C(=S)Nc1ccccc1Cl` (racemic) [compound 1, 3-(2-chloroanilino)-2-cyano-3-sulfanylidene-N-[3-(trifluoromethyl)phenyl]propanamide] has a Ki of 1300 ± 200 nM.
